Converted amounts (≈) assume the structure as drawn. Counter-ions that a name gives are not always drawn.

One data set can be described thus: Solubility in Milli-Q water, examined with naked eye. The class given is physicochemical. The following applies: thermodynamic from solid; arbitrary amount in 1 mL Milli-Q water, room temperature, clear solution by naked eye; not the maximum solubility; read-out: Solubility in H2O. An excerpt: Experiments with no visible particles by naked eye were considered as clear solutions. It is important to note that the reported solubility information is not the maximum solubility of the compounds in water.
For `Cc1ccc(NC(=O)[C@H]2CCCN(C(=O)c3c(C)cccc3F)[C@H]2c2ccc(N(C(=O)OCOP(=O)(O)O)C3CCCC3)cc2)cc1C(F)(F)F` [Example 9, phosphonooxymethyl N-cyclopentyl-N-[4-[(2R,3S)-1-(2-fluoro-6-methyl-benzoyl)-3-[[4-methyl-3-(trifluoromethyl)phenyl]carbamoyl]-2-piperidyl]phenyl]carbamate], the solubility is greater than 10000 µg/mL.
On the same count and under the same terms, with `Cc1ccc(NC(=O)[C@H]2CCCN(C(=O)c3c(C)cccc3F)[C@H]2c2ccc(N(C(=O)OCOC(=O)/C=C/C(=O)O)C3CCCC3)cc2)cc1C(F)(F)F` [Example 10, (E)-4-[[cyclopentyl-[4-[(2R,3S)-1-(2-fluoro-6-methyl-benzoyl)-3-[[4-methyl-3-(trifluoromethyl)phenyl]carbamoyl]-2-piperidyl]phenyl]carbamoyl]oxymethoxy]-4-oxo-but-2-enoic acid] the figure was 1000 µg/mL (≈ 1.33 mM); with `Cc1ccc(NC(=O)[C@H]2CCCN(C(=O)c3c(C)cccc3F)[C@H]2c2ccc(N(C(=O)OCOC(=O)[C@@H](N)C(C)C)C3CCCC3)cc2)cc1C(F)(F)F` [Example 7, [cyclopentyl-[4-[(2R,3S)-1-(2-fluoro-6-methyl-benzoyl)-3-[[4-methyl-3-(trifluoromethyl)phenyl]carbamoyl]-2-piperidyl]phenyl]carbamoyl]oxymethyl (2S)-2-amino-3-methyl-butanoate], 1000 to 2000 µg/mL (≈ 1.32 to 2.65 mM); with `Cc1cccc(F)c1C(=O)N1CCC[C@H](C(=O)Nc2ccc(COC(=O)CNC(=O)[C@@H](N)C(C)C)c(C(F)(F)F)c2)[C@@H]1c1ccc(NC2CCCC2)cc1` [Example 14, [4-[[(2R,3S)-2-[4-(cyclopentylamino)phenyl]-1-(2-fluoro-6-methyl-benzoyl)piperidine-3-carbonyl]amino]-2-(trifluoromethyl)phenyl]methyl 2-[[(2S)-2-amino-3-methyl-butanoyl]amino]acetate], 5000 µg/mL (≈ 6.63 mM).
On to `Cc1cccc(F)c1C(=O)N1CCC[C@H](C(=O)Nc2ccc(COC(=O)CN)c(C(F)(F)F)c2)[C@@H]1c1ccc(NC2CCCC2)cc1` [Example 20, [4-[[(2R,3S)-2-[4-(cyclopentylamino)phenyl]-1-(2-fluoro-6-methyl-benzoyl)piperidine-3-carbonyl]amino]-2-(trifluoromethyl)phenyl]methyl 2-aminoacetate], for which the solubility is greater than 10000 µg/mL.
Same read-out and setting: the figure for `Cc1ccc(NC(=O)[C@H]2CCCN(C(=O)c3c(C)cccc3F)[C@H]2c2ccc(N(C(=O)CNC(=O)CN)C3CCCC3)cc2)cc1C(F)(F)F` [Example 5, (2R,3S)-2-[4-[[2-[(2-aminoacetyl)amino]acetyl]-cyclopentyl-amino]phenyl]-1-(2-fluoro-6-methyl-benzoyl)-N-[4-methyl-3-(trifluoromethyl)phenyl]piperidine-3-carboxamide] is 10000 µg/mL (≈ 14.4 mM); for `Cc1cccc(F)c1C(=O)N1CCC[C@H](C(=O)Nc2ccc(COC(=O)C(N)C(C)C)c(C(F)(F)F)c2)[C@@H]1c1ccc(NC2CCCC2)cc1` (stereo in doubt) [Example 17, [4-[[(2R,3S)-2-[4-(cyclopentylamino)phenyl]-1-(2-fluoro-6-methyl-benzoyl)piperidine-3-carbonyl]amino]-2-(trifluoromethyl)phenyl]methyl (2R)-2-amino-3-methyl-butanoate] it is 4000 µg/mL (≈ 5.74 mM).
The same measure, in the same setting: the figure for `Cc1cccc(F)c1C(=O)N1CCC[C@H](C(=O)Nc2ccc(COC(=O)[C@@H](NC(=O)[C@@H](N)C(C)C)C(C)C)c(C(F)(F)F)c2)[C@@H]1c1ccc(NC2CCCC2)cc1` [Example 16, [4-[[(2R,3S)-2-[4-(cyclopentylamino)phenyl]-1-(2-fluoro-6-methyl-benzoyl)piperidine-3-carbonyl]amino]-2-(trifluoromethyl)phenyl]methyl (2S)-2-[[(2S)-2-amino-3-methyl-butanoyl]amino]-3-methyl-butanoate] is 5000 µg/mL (≈ 6.28 mM); for `Cc1ccc(NC(=O)[C@H]2CCCN(C(=O)c3c(C)cccc3F)[C@H]2c2ccc(N(C(=O)CNC(=O)[C@@H](N)CCCN)C3CCCC3)cc2)cc1C(F)(F)F` [Example 6, (2R,3S)-2-[4-[cyclopentyl-[2-[[(2S)-2,5-diaminopentanoyl]amino]acetyl]amino]phenyl]-1-(2-fluoro-6-methyl-benzoyl)-N-[4-methyl-3-(trifluoromethyl)phenyl]piperidine-3-carboxamide dihydrochloride] it is 5000 µg/mL.
As for `Cc1cccc(F)c1C(=O)N1CCC[C@H](C(=O)Nc2ccc(COCOP(=O)(O)O)c(C(F)(F)F)c2)[C@@H]1c1ccc(NC2CCCC2)cc1` [Example 22, [4-[[(2R,3S)-2-[4-(cyclopentylamino)phenyl]-1-(2-fluoro-6-methyl-benzoyl)piperidine-3-carbonyl]amino]-2-(trifluoromethyl)phenyl]methoxymethyl dihydrogen phosphate], the solubility is 15000 µg/mL.
`Cc1ccc(NC(=O)[C@H]2CCCN(C(=O)c3c(C)cccc3F)[C@H]2c2ccc(N(C(=O)CN(C)C)C3CCCC3)cc2)cc1C(F)(F)F` [Example 1, (2R,3S)-2-[4-[cyclopentyl-[2-(dimethylamino)acetyl]amino]phenyl]-1-(2-fluoro-6-methyl-benzoyl)-N-[4-methyl-3-(trifluoromethyl)phenyl]piperidine-3-carboxamide]: the solubility was greater than 10000 µg/mL.
`Cc1cccc(F)c1C(=O)N1CCC[C@H](C(=O)Nc2ccc(COC(=O)c3cccc(CN4CCN(C)CC4)c3)c(C(F)(F)F)c2)[C@@H]1c1ccc(NC2CCCC2)cc1` [Example 23, [4-[[(2R,3S)-2-[4-(cyclopentylamino)phenyl]-1-(2-fluoro-6-methyl-benzoyl)piperidine-3-carbonyl]amino]-2-(trifluoromethyl)phenyl]methyl 3-[(4-methylpiperazin-1-yl)methyl]benzoate]: the solubility is greater than 1000 µg/mL.
The same measure, in the same setting: with `Cc1cccc(F)c1C(=O)N1CCC[C@H](C(=O)Nc2ccc(COC(=O)[C@H](C)N)c(C(F)(F)F)c2)[C@@H]1c1ccc(NC2CCCC2)cc1` [Example 18, [4-[[(2R,3S)-2-[4-(cyclopentylamino)phenyl]-1-(2-fluoro-6-methyl-benzoyl)piperidine-3-carbonyl]amino]-2-(trifluoromethyl)phenyl]methyl (2S)-2-aminopropanoate] the figure was greater than 5000 µg/mL; with `Cc1cccc(F)c1C(=O)N1CCC[C@H](C(=O)Nc2ccc(COC(=O)[C@@H](NC(=O)CN)C(C)C)c(C(F)(F)F)c2)[C@@H]1c1ccc(NC2CCCC2)cc1` [Example 15, [4-[[(2R,3S)-2-[4-(cyclopentylamino)phenyl]-1-(2-fluoro-6-methyl-benzoyl)piperidine-3-carbonyl]amino]-2-(trifluoromethyl)phenyl]methyl (2S)-2-[(2-aminoacetyl)amino]-3-methyl-butanoate], 5000 µg/mL (≈ 6.63 mM).
On the same count and under the same terms, with `Cc1ccc(NC(=O)[C@H]2CCCN(C(=O)c3c(C)cccc3F)[C@H]2c2ccc(N(C3CCCC3)P(=O)(O)OC(=O)C(C)C)cc2)cc1C(F)(F)F` [Example 4, N-cyclopentyl-N-[4-[(2R,3S)-1-(2-fluoro-6-methyl-benzoyl)-3-[[4-methyl-3 (trifluoromethyl)phenyl]carbamoyl]-2-piperidyl]phenyl]-(2-methylpropanoyloxy)phosphonamidic acid] the figure was 1000 µg/mL (≈ 1.37 mM).
With `Cc1cccc(F)c1C(=O)N1CCC[C@H](C(=O)Nc2ccc(COC(=O)CNC(=O)CN)c(C(F)(F)F)c2)[C@@H]1c1ccc(NC2CCCC2)cc1` [Example 13], the solubility was 10000 µg/mL (≈ 14 mM).
On the same count and under the same terms, the figure for `Cc1ccc(N(COP(=O)(O)O)C(=O)[C@H]2CCCN(C(=O)c3c(C)cccc3F)[C@H]2c2ccc(NC3CCCC3)cc2)cc1C(F)(F)F` [Example 11, [N-[(2R,3S)-2-[4-(cyclopentylamino)phenyl]-1-(2-fluoro-6-methyl-benzoyl)piperidine-3-carbonyl]-4-methyl-3-(trifluoromethyl)anilino]methyl dihydrogen phosphate] is greater than 5000 µg/mL; for `Cc1ccc(NC(=O)[C@H]2CCCN(C(=O)c3c(C)cccc3F)[C@H]2c2ccc(N(C3CCCC3)P(=O)(O)N[C@@H](Cc3c[nH]cn3)C(=O)O)cc2)cc1C(F)(F)F` [Example 3, 2-[[[N-cyclopentyl-4-[(2R,3S)-1-(2-fluoro-6-methyl-benzoyl)-3-[[4-methyl-3-(trifluoromethyl)phenyl]carbamoyl]-2-piperidyl]anilino]-hydroxy-phosphoryl]amino]-3-(1H-imidazol-4-yl)propanoic acid] it is 5000 µg/mL (≈ 6.26 mM).
On the same count and under the same terms, with `Cc1ccc(NC(=O)[C@H]2CCCN(C(=O)c3c(C)cccc3F)[C@H]2c2ccc(N(C(=O)CN)C3CCCC3)cc2)cc1C(F)(F)F` [Example 2, (2R,3S)-2-[4-[(2-aminoacetyl)-cyclopentyl-amino]phenyl]-1-(2-fluoro-6-methyl-benzoyl)-N-[4-methyl-3-(trifluoromethyl)phenyl]piperidine-3-carboxamide] the figure was greater than 5000 µg/mL; with `Cc1ccc(NC(=O)[C@H]2CCCN(C(=O)c3c(C)cccc3F)[C@H]2c2ccc(N(C(=O)OCc3ccc(OP(=O)(O)O)cc3)C3CCCC3)cc2)cc1C(F)(F)F` [Example 8, (4-phosphonooxyphenyl)methyl N-cyclopentyl-N-[4-[(2R,3S)-1-(2-fluoro-6-methyl-benzoyl)-3-[[4-methyl-3-(trifluoromethyl)phenyl]carbamoyl]-2-piperidyl]phenyl]carbamate], 1000 µg/mL (≈ 1.23 mM).

The next data set in a line: physchem. The class given is physicochemical. The following applies: 25 °C, pH 7, aqueous buffer, thermodynamic from solid. Here is the method: Saturated solutions of compound in pH 7 buffers were left overnight at room temperature (25° C.) before they were centrifuged. The supernatants were taken out and quantified. Solubility: 0.053 μg/mL.
`Cc1ccc(NC(=O)[C@H]2CCCN(C(=O)c3c(C)cccc3F)[C@H]2c2ccc(NC3CCCC3)cc2)cc1C(F)(F)F`: the solubility is 0.053 µg/mL (≈ 9.11e-05 mM).

A further data set is described as follows: Solubility of saturated solutions in D.I. water, quantified by LC-MS. The class given is physicochemical. The following applies: thermodynamic from solid, saturated solution in D.I. water, shaken 3 hours at room temperature, average of four replicates. Here is the method: Saturated solutions of compound were freshly prepared by adding 1 mL D.I. water into 0.8 mg compound powder. After shaking at room temperature for 3 hours, the samples were centrifuged under 14000 rpm for 15 minutes twice. The supernatants were carefully taken out and quantified by LC-MS. Solubility: 1.2±0.2 μg/mL (average of four replicates).
The compound `Cc1cccc(F)c1C(=O)N1CCC[C@H](C(=O)Nc2ccc(CO)c(C(F)(F)F)c2)[C@@H]1c1ccc(NC2CCCC2)cc1` returned a solubility at 3 h of 1.2 ± 0.2 µg/mL (≈ 0.00201 mM).

One may read the solubility as the concentration that dissolves in the medium under given conditions.

The record behind these values is patent US11254695B2, “Soluble C5aR antagonists” (CHEMOCENTRYX, INC., priority 2016, dated 2022).
